Data from ChEMBL document CHEMBL3232888, “Optimization of anti-virulence PqsR antagonists regarding aqueous solubility and biological properties resulting in new insights in structure-activity relationships” (Eur J Med Chem, 2014).
Values after ≈ are worked out from the molar mass of the structure shown.

Assays:
Pseudomonas aeruginosa [1] = assay: Antagonist activity at Pseudomonas aeruginosa PqsR expressed in Escherichia coli DH5alpha assessed as inhibition of PQS-induced transcriptional activity at 50 nM by beta-galactosidase reporter gene assay relative to PQS
Pseudomonas aeruginosa [2] = assay: Agonist activity at Pseudomonas aeruginosa PqsR expressed in Escherichia coli DH5alpha assessed as induction of transcriptional activity at 5 uM by beta-galactosidase reporter gene assay relative to PQS
Pseudomonas aeruginosa [3] = assay: Antagonist activity at Pseudomonas aeruginosa PqsR expressed in Escherichia coli DH5alpha assessed as inhibition of PQS-induced transcriptional activity at 5 uM by beta-galactosidase reporter gene assay relative to PQS
[4] = Aqueous solubility of the compound in 2% DMSO at pH 7.4 by HPLC analysis; type: physicochemical; conditions: aqueous medium with 2% DMSO
Pseudomonas aeruginosa [5] = assay: Antivirulence activity in Pseudomonas aeruginosa PA14 assessed as reduction of extracellular level of pyocyanin; type: functional
Pseudomonas aeruginosa [6] = assay: Growth inhibition of Pseudomonas aeruginosa; type: organism-based; conditions: in vivo
Pseudomonas aeruginosa [7] = assay: Antivirulence activity in Pseudomonas aeruginosa PA14 assessed as reduction of extracellular level of pyocyanin at 15 uM relative to control; type: functional; parameters: scale not given: the % may be the effect or the level left
Pseudomonas aeruginosa [8] = assay: Antivirulence activity in Pseudomonas aeruginosa PA14 assessed as reduction of extracellular level of PQS at 15 uM by UHPLC-MS/MS analysis relative to control; type: functional; parameters: scale not given: the % may be the effect or the level left
[9] = Metal chelating activity of the compound assessed as CAS iron-chelation after 15 mins; type: physicochemical; conditions: 0.25 h
[10] = Antagonist activity at Pseudomonas aeruginosa PqsR expressed in Escherichia coli DH5alpha assessed as inhibition of PQS-induced transcriptional activity by beta-galactosidase reporter gene assay relative to PQS
Pseudomonas aeruginosa [11] = assay: Antivirulence activity in Pseudomonas aeruginosa PA14 assessed as reduction of extracellular level of pyocyanin at 250 uM relative to control; type: functional; parameters: scale not given: the % may be the effect or the level left
Pseudomonas aeruginosa [12] = assay: Antivirulence activity in Pseudomonas aeruginosa PA14 assessed as reduction of extracellular level of PQS at 250 uM by UHPLC-MS/MS analysis relative to control; type: functional; parameters: scale not given: the % may be the effect or the level left
Pseudomonas aeruginosa [13] = assay: Antivirulence activity in Pseudomonas aeruginosa PA14 assessed as reduction of extracellular level of pyocyanin at 10 uM relative to control; type: functional; parameters: scale not given: the % may be the effect or the level left
Pseudomonas aeruginosa [14] = assay: Antivirulence activity in Pseudomonas aeruginosa PA14 assessed as reduction of extracellular level of PQS at 10 uM by UHPLC-MS/MS analysis relative to control; type: functional; parameters: scale not given: the % may be the effect or the level left
Pseudomonas aeruginosa [15] = assay: Agonist activity at Pseudomonas aeruginosa PqsR expressed in Escherichia coli DH5alpha assessed as induction of transcriptional activity at 10 uM by beta-galactosidase reporter gene assay relative to PQS
Pseudomonas aeruginosa [16] = assay: Antivirulence activity in Pseudomonas aeruginosa PA14 assessed as reduction of extracellular level of PQS at 100 uM by UHPLC-MS/MS analysis relative to control; type: functional; parameters: scale not given: the % may be the effect or the level left
Pseudomonas aeruginosa [17] = assay: Antivirulence activity in Pseudomonas aeruginosa PA14 assessed as reduction of extracellular level of pyocyanin at 100 uM relative to control; type: functional; parameters: scale not given: the % may be the effect or the level left
Pseudomonas aeruginosa [18] = assay: Agonist activity at Pseudomonas aeruginosa PqsR expressed in Escherichia coli DH5alpha assessed as induction of transcriptional activity at 1 uM by beta-galactosidase reporter gene assay relative to PQS

SMILES	inhibition (Pseudomonas aeruginosa [1])	Activity (Pseudomonas aeruginosa [2])	inhibition (Pseudomonas aeruginosa [3])	solubility [4]	Activity (Pseudomonas aeruginosa [6])	IC50 [10]	other results
CCCCCCCc1[nH]c2ccc([N+](=O)[O-])cc2c(=O)c1C(=O)NO	30%	0.3%	78%	> 200 µM	–	–	–
CCCCCOCc1[nH]c2ccc([N+](=O)[O-])cc2c(=O)c1C(=O)OCC	2%	0%	13%	15 µM (≈ 5.44 µg/mL)	–	–	–
CCCCCCCc1cc(OC)c2ccccc2n1	-23%	0.03%	-6%	5 µM (≈ 1.29 µg/mL)	–	–	–
CCCCCCCc1[nH]c2ccc([N+](=O)[O-])cc2c(=O)c1CO	45%	0%	100%	5 µM (≈ 1.59 µg/mL)	Non-toxic	72 nM	IC50 (Pseudomonas aeruginosa [5]): 3800 nM; Activity (Pseudomonas aeruginosa [7]): 83%; Activity (Pseudomonas aeruginosa [8]): 33%; Activity [9]: Not Active
CCOCCCCc1cc(=O)c2cc(C(F)(F)F)ccc2[nH]1	8%	0.02%	69%	> 200 µM	Non-toxic	1710 nM	Activity (Pseudomonas aeruginosa [11]): 39%; Activity (Pseudomonas aeruginosa [12]): 8.6%
CCCCCCCc1cc(=O)c2cc(C(F)(F)F)ccc2[nH]1	54%	0%	100%	< 5 µM	Non-toxic	54 nM	Activity (Pseudomonas aeruginosa [13]): 27%; Activity (Pseudomonas aeruginosa [14]): 2.4%
CCCCCCCc1[nH]c2ccccc2c(=O)c1N	-4%	1.22%	-7%	50 µM (≈ 12.9 µg/mL)	–	–	–
CCCCCOCc1cc(=O)c2ccccc2[nH]1	11%	0.89%	6%	> 200 µM	–	–	–
CCCCCCCc1[nH]c2ccc([N+](=O)[O-])cc2c(=O)c1C(=O)O	11%	0.78%	34%	15 µM (≈ 4.99 µg/mL)	–	–	–
CCCCCCCc1[nH]c2ccccc2c(=O)c1C(N)=O	8%	0.65%	27%	5 µM (≈ 1.43 µg/mL)	–	–	–
CCCCCCCc1cc(=O)c2cc(C(F)(F)F)ccc2n1C	31%	0%	100%	5 µM (≈ 1.63 µg/mL)	Non-toxic	270 nM	Activity (Pseudomonas aeruginosa [7]): 58%; Activity (Pseudomonas aeruginosa [8]): 8.9%
CCCCCCCc1cc(=O)c2cc([N+](=O)[O-])ccc2[nH]1	73%	–	100%	< 5 µM	Non-toxic	51 nM	Activity (Pseudomonas aeruginosa [7]): 44%; Activity (Pseudomonas aeruginosa [8]): 14%; Activity (Pseudomonas aeruginosa [15]): 0%
CCOCCCCc1cc(=O)c2cc([N+](=O)[O-])ccc2[nH]1	6%	0.13%	72%	50 µM (≈ 14.5 µg/mL)	Non-toxic	3510 nM	Activity (Pseudomonas aeruginosa [16]): 13%; Activity (Pseudomonas aeruginosa [17]): 23%
CCCCCCCc1cc(O)c2ccccc2n1	–	–	–	15 µM (≈ 3.65 µg/mL)	–	–	–
CCCCCCCc1[nH]c2ccccc2c(=O)c1C(=O)NO	15%	0.83%	29%	> 200 µM	–	–	–
CCCCCCCc1[nH]c2ccccc2c(=O)c1C(=O)OCC	18%	0%	32%	5 µM (≈ 1.58 µg/mL)	–	–	–
CCCCCCCc1[nH]c2ccncc2c(=O)c1C(=O)OCC	24%	0.02%	76%	50 µM (≈ 15.8 µg/mL)	–	–	–

SMILES	inhibition (Pseudomonas aeruginosa [1])	Activity (Pseudomonas aeruginosa [2])	inhibition (Pseudomonas aeruginosa [3])	solubility [4]	Activity (Pseudomonas aeruginosa [6])	IC50 [10]	other results
CCCCCOCc1[nH]c2ccc([N+](=O)[O-])cc2c(=O)c1C(=O)O	7%	0.48%	6%	50 µM (≈ 16.7 µg/mL)	–	–	–
CCCCCCCc1[nH]c2ccc([N+](=O)[O-])cc2c(=O)c1C(=O)OCC	-8%	0%	20%	5 µM (≈ 1.8 µg/mL)	–	–	–
CCCCCCCc1cc(=O)c2cnccc2[nH]1	8%	0.82%	2%	50 µM (≈ 12.2 µg/mL)	–	–	–
CCOCCCCc1cc(=O)c2ccccc2[nH]1	54%	0.31%	42%	> 200 µM	–	–	–
CCCCCCCc1[nH]c2ccccc2c(=O)c1C(=O)O	12%	0.73%	41%	15 µM (≈ 4.31 µg/mL)	–	–	–
CCCCCOCc1cc(=O)c2cc([N+](=O)[O-])ccc2[nH]1	49%	0%	100%	15 µM (≈ 4.35 µg/mL)	Non-toxic	253 nM	Activity (Pseudomonas aeruginosa [7]): 27%; Activity (Pseudomonas aeruginosa [8]): 23%
CCCCCCCc1[nH]c2ccc([N+](=O)[O-])cc2c(=O)c1O	-31%	1.25%	-29%	< 5 µM	–	–	–
CCCCCCCc1[nH]c2ccccc2c(=O)c1CO	5%	0.49%	28%	50 µM (≈ 13.7 µg/mL)	–	–	–
CCCCCCCc1[nH]c2ccccc2c(=O)c1[N+](=O)[O-]	14%	0.84%	17%	< 5 µM	–	–	–
CCCCCCCc1cc(=O)c2ccccc2[nH]1	–	–	–	–	–	–	Activity (Pseudomonas aeruginosa [18]): 0.75%
CCCCCCc1cc(=O)c2cc(C(F)(F)F)ccc2n1C	45%	0%	100%	15 µM (≈ 4.67 µg/mL)	Non-toxic	229 nM	–
CCCCCCCc1[nH]c2ccncc2c(=O)c1C(=O)O	6%	0.66%	20%	50 µM (≈ 14.4 µg/mL)	–	–	–
CCCCCCCc1[nH]c2ccc([N+](=O)[O-])cc2c(=O)c1C(N)=O	60%	0%	100%	15 µM (≈ 4.97 µg/mL)	Non-toxic	35 nM	IC50 (Pseudomonas aeruginosa [5]): 2000 nM; Activity (Pseudomonas aeruginosa [7]): 81%; Activity (Pseudomonas aeruginosa [8]): 37%; Activity [9]: Not Active
CCCCCOCc1cc(=O)c2cc(C(F)(F)F)ccc2[nH]1	29%	0%	100%	15 µM (≈ 4.7 µg/mL)	Non-toxic	172 nM	Activity (Pseudomonas aeruginosa [7]): 29%; Activity (Pseudomonas aeruginosa [8]): 21%
CCOCCCCc1[nH]c2ccc([N+](=O)[O-])cc2c(=O)c1C(=O)O	1%	0.42%	33%	50 µM (≈ 16.7 µg/mL)	–	–	–
CCOCCCCc1[nH]c2ccc([N+](=O)[O-])cc2c(=O)c1C(=O)OCC	2%	0.09%	27%	5 µM (≈ 1.81 µg/mL)	–	–	–
